Reference: PMC8037182, “Solvothermal Synthesis of Multiple Dihydropyrimidinones at a Time as Inhibitors of Eg5” (Molecules, 2021)
pIC50: −log10 of the molar value.

Test system: Hela cell line
Test: Cytotoxicity MTS assay, Hela cell line
Format: cell-based
Conditions: for OD490 value, Mean / OD490 value, Well 1 / OD490 value, Well 2 / OD490 value, Well 3: Hela cell line, MTS; for pIC50: MTS assay, 24 h exposure
Experimental: The positive compounds (IC50 < 100 μM) obtained from the primary Eg5 motor protein ATPase assay were tested for antiproliferative activity in vitro against Caco-2 cell line, Hela cell line, L929 cell line and T24 cell line by performing MTS assay. Cells were introduced into 96-well plates at a density of 1000 cells per well. After 24 h incubation, the cells were exposed with compounds at final concentrations ranging from 0.5 to 100 µM for 24 h. DMSO was used at a final concentration of 0.025% as blank control, monastrol was used as the positive control. Then 20 µL (CellTiter 96® AQueous One Solution Promega, Madison, WI, USA) reagent was added in each well. After 2 h at 37 °C in a 80% humidified, 5% CO2 atmosphere, the absorbance at 490 nm was recorded using a microplate reader (BIO-RAD iMark^TM). The results were obtained in three independent duplicate experiments. The primary data were shown in Supplementary Materials Tables S4–S7. The IC50 values for these compounds were calculated from a non-linear regression graph plotted between the percentage of cell viability and concentration with SPSS17.0 software.

CCOC(=O)c1[nH]c(C2NC(=O)NC(C)=C2C(=O)Nc2ccc(Cl)cc2)c(C(=O)OCC)c1C (centres unmarked) [D7]
OD490 value, Mean (0.5μM, first assay): 2.5908
OD490 value, Well 1 (0.5μM, first assay): 2.5621
OD490 value, Well 2 (0.5μM, first assay): 2.6393
OD490 value, Well 3 (0.5μM, first assay): 2.5711
OD490 value, Mean (0.5μM, second assay): 2.6768
OD490 value, Well 1 (0.5μM, second assay): 2.5588
OD490 value, Well 2 (0.5μM, second assay): 2.6974
OD490 value, Well 3 (0.5μM, second assay): 2.7741
OD490 value, Mean (0.5μM, third assay): 2.6551
OD490 value, Well 1 (0.5μM, third assay): 2.6545
OD490 value, Well 2 (0.5μM, third assay): 2.6358
OD490 value, Well 3 (0.5μM, third assay): 2.6749
OD490 value, Mean (1μM, first assay): 2.4582
OD490 value, Well 1 (1μM, first assay): 2.4152
OD490 value, Well 2 (1μM, first assay): 2.4632
OD490 value, Well 3 (1μM, first assay): 2.4962
OD490 value, Mean (1μM, second assay): 2.6058
OD490 value, Well 1 (1μM, second assay): 2.8624
OD490 value, Well 2 (1μM, second assay): 2.6541
OD490 value, Well 3 (1μM, second assay): 2.3010
OD490 value, Mean (1μM, third assay): 2.6692
OD490 value, Well 1 (1μM, third assay): 2.6686
OD490 value, Well 2 (1μM, third assay): 2.5980
OD490 value, Well 3 (1μM, third assay): 2.7410
OD490 value, Mean (10μM, first assay): 2.5790
OD490 value, Well 1 (10μM, first assay): 2.7201
OD490 value, Well 2 (10μM, first assay): 2.4926
OD490 value, Well 3 (10μM, first assay): 2.5244
OD490 value, Mean (10μM, second assay): 2.5914
OD490 value, Well 1 (10μM, second assay): 2.3698
OD490 value, Well 2 (10μM, second assay): 2.8523
OD490 value, Well 3 (10μM, second assay): 2.5521
OD490 value, Mean (10μM, third assay): 2.6067
OD490 value, Well 1 (10μM, third assay): 2.5657
OD490 value, Well 2 (10μM, third assay): 2.6845
OD490 value, Well 3 (10μM, third assay): 2.5698
OD490 value, Mean (25μM, first assay): 2.6458
OD490 value, Well 1 (25μM, first assay): 2.7056
OD490 value, Well 2 (25μM, first assay): 2.6228
OD490 value, Well 3 (25μM, first assay): 2.6091
OD490 value, Mean (25μM, second assay): 2.6325
OD490 value, Well 1 (25μM, second assay): 2.5901
OD490 value, Well 2 (25μM, second assay): 2.6301
OD490 value, Well 3 (25μM, second assay): 2.6774
OD490 value, Mean (25μM, third assay): 2.6849
OD490 value, Well 1 (25μM, third assay): 2.6987
OD490 value, Well 2 (25μM, third assay): 2.6457
OD490 value, Well 3 (25μM, third assay): 2.7102
OD490 value, Mean (50μM, first assay): 2.4563
OD490 value, Well 1 (50μM, first assay): 2.5239
OD490 value, Well 2 (50μM, first assay): 2.4847
OD490 value, Well 3 (50μM, first assay): 2.3602
OD490 value, Mean (50μM, second assay): 2.2166
OD490 value, Well 1 (50μM, second assay): 2.3365
OD490 value, Well 2 (50μM, second assay): 2.0124
OD490 value, Well 3 (50μM, second assay): 2.3010
OD490 value, Mean (50μM, third assay): 2.4441
OD490 value, Well 1 (50μM, third assay): 2.4565
OD490 value, Well 2 (50μM, third assay): 2.6544
OD490 value, Well 3 (50μM, third assay): 2.2214
OD490 value, Mean (100μM, first assay): 1.9660
OD490 value, Well 1 (100μM, first assay): 1.8876
OD490 value, Well 2 (100μM, first assay): 1.9083
OD490 value, Well 3 (100μM, first assay): 2.1021
OD490 value, Mean (100μM, second assay): 1.8447
OD490 value, Well 1 (100μM, second assay): 1.6754
OD490 value, Well 2 (100μM, second assay): 1.8601
OD490 value, Well 3 (100μM, second assay): 1.9987
OD490 value, Mean (100μM, third assay): 1.9092
OD490 value, Well 1 (100μM, third assay): 1.9698
OD490 value, Well 2 (100μM, third assay): 1.9033
OD490 value, Well 3 (100μM, third assay): 1.8546
pIC50: < 3.82

CCOC(=O)c1c(C2NC(=O)NC(C)=C2C(=O)Nc2ccccc2)[nH]c(C(=O)OC)c1C (centres unmarked) [D10]
OD490 value, Mean (0.5μM, first assay): 2.4433
OD490 value, Well 1 (0.5μM, first assay): 2.2781
OD490 value, Well 2 (0.5μM, first assay): 2.4004
OD490 value, Well 3 (0.5μM, first assay): 2.6514
OD490 value, Mean (0.5μM, second assay): 2.6180
OD490 value, Well 1 (0.5μM, second assay): 2.6587
OD490 value, Well 2 (0.5μM, second assay): 2.4789
OD490 value, Well 3 (0.5μM, second assay): 2.7165
OD490 value, Mean (0.5μM, third assay): 2.7318
OD490 value, Well 1 (0.5μM, third assay): 2.6365
OD490 value, Well 2 (0.5μM, third assay): 2.6647
OD490 value, Well 3 (0.5μM, third assay): 2.8942
OD490 value, Mean (1μM, first assay): 2.5456
OD490 value, Well 1 (1μM, first assay): 2.4058
OD490 value, Well 2 (1μM, first assay): 2.5965
OD490 value, Well 3 (1μM, first assay): 2.6345
OD490 value, Mean (1μM, second assay): 2.6802
OD490 value, Well 1 (1μM, second assay): 2.6241
OD490 value, Well 2 (1μM, second assay): 2.8523
OD490 value, Well 3 (1μM, second assay): 2.5641
OD490 value, Mean (1μM, third assay): 2.6076
OD490 value, Well 1 (1μM, third assay): 2.6360
OD490 value, Well 2 (1μM, third assay): 2.5412
OD490 value, Well 3 (1μM, third assay): 2.6456
OD490 value, Mean (10μM, first assay): 2.4164
OD490 value, Well 1 (10μM, first assay): 2.2701
OD490 value, Well 2 (10μM, first assay): 2.4384
OD490 value, Well 3 (10μM, first assay): 2.5408
OD490 value, Mean (10μM, second assay): 2.3656
OD490 value, Well 1 (10μM, second assay): 2.3071
OD490 value, Well 2 (10μM, second assay): 2.3385
OD490 value, Well 3 (10μM, second assay): 2.4512
OD490 value, Mean (10μM, third assay): 2.4636
OD490 value, Well 1 (10μM, third assay): 2.3685
OD490 value, Well 2 (10μM, third assay): 2.4635
OD490 value, Well 3 (10μM, third assay): 2.5587
OD490 value, Mean (25μM, first assay): 2.2246
OD490 value, Well 1 (25μM, first assay): 1.9325
OD490 value, Well 2 (25μM, first assay): 2.3409
OD490 value, Well 3 (25μM, first assay): 2.4004
OD490 value, Mean (25μM, second assay): 2.1531
OD490 value, Well 1 (25μM, second assay): 2.0147
OD490 value, Well 2 (25μM, second assay): 2.2032
OD490 value, Well 3 (25μM, second assay): 2.2414
OD490 value, Mean (25μM, third assay): 2.1839
OD490 value, Well 1 (25μM, third assay): 2.1010
OD490 value, Well 2 (25μM, third assay): 2.1141
OD490 value, Well 3 (25μM, third assay): 2.3365
OD490 value, Mean (50μM, first assay): 1.8479
OD490 value, Well 1 (50μM, first assay): 1.6416
OD490 value, Well 2 (50μM, first assay): 1.7737
OD490 value, Well 3 (50μM, first assay): 2.1285
OD490 value, Mean (50μM, second assay): 1.7649
OD490 value, Well 1 (50μM, second assay): 1.7425
OD490 value, Well 2 (50μM, second assay): 1.7321
OD490 value, Well 3 (50μM, second assay): 1.8201
OD490 value, Mean (50μM, third assay): 1.8099
OD490 value, Well 1 (50μM, third assay): 1.7845
OD490 value, Well 2 (50μM, third assay): 1.8032
OD490 value, Well 3 (50μM, third assay): 1.8420
OD490 value, Mean (100μM, first assay): 1.6845
OD490 value, Well 1 (100μM, first assay): 1.6759
OD490 value, Well 2 (100μM, first assay): 1.7430
OD490 value, Well 3 (100μM, first assay): 1.6346
OD490 value, Mean (100μM, second assay): 1.6082
OD490 value, Well 1 (100μM, second assay): 1.6324
OD490 value, Well 2 (100μM, second assay): 1.5024
OD490 value, Well 3 (100μM, second assay): 1.6898
OD490 value, Mean (100μM, third assay): 1.7036
OD490 value, Well 1 (100μM, third assay): 1.6578
OD490 value, Well 2 (100μM, third assay): 1.6988
OD490 value, Well 3 (100μM, third assay): 1.7542
pIC50: 3.97
